Where a name gives a salt, the structure may show the parent alone.

A word on the IC50: it is the midpoint of a concentration-inhibition curve.

The assay concerns the target T1, human PPAR γ 2 (Homo sapiens, UniProt P37231).
T1 construct: expressed in transfected cells; host or cells: human osteosarcoma MG63, transiently co-transfected with pSG5-hPPARg and the reporter pGV-P2-PPRE
T1 sequence (P37231 1-505): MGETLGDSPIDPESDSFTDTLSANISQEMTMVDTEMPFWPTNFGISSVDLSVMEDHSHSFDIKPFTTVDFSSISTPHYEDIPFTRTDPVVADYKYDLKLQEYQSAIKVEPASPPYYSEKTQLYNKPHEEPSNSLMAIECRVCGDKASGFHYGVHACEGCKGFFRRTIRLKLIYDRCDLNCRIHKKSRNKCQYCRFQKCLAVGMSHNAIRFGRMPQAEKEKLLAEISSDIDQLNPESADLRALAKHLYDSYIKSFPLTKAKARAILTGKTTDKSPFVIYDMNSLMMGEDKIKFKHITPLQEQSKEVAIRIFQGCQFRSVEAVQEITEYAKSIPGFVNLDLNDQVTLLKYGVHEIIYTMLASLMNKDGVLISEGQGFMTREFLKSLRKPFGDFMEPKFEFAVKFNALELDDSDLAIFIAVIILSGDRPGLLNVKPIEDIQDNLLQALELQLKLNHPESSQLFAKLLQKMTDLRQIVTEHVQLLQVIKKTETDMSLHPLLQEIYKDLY
The assay is described as follows: Inhibitory activity against PPAR γ transcription in the presence of agonist compound A, luciferase reporter. In kind it is cell-based. The following applies: in the presence of 10 nM compound A (agonist); MG63 cells transfected with pSG5-hPPARg and pGV-P2-PPRE; 24 hr.
With `Nc1nc(-c2cccc(NC(=O)c3cc([N+](=O)[O-])ccc3Cl)c2)cs1` [Example 233, N-[3-(2-Amiothiazol-4-yl)phenyl]-(2-chloro-5-nitrophenyl)carboxamide], the concentration for half-maximal inhibition (IC50) was found to be 28 nM.
As to `CCCCCCNc1ccc(-c2ccc(NC(=O)c3cc([N+](=O)[O-])ccc3Cl)cc2)cc1` [Example 195, N-[4-[4-(N-Hexylamino)phenyl]phenyl]-(2-chloro-5-nitrophenyl)carboxamide], the IC50 turned out to be 18 nM.
The figure for `Nc1ccc(NC(=O)c2cc([N+](=O)[O-])ccc2Cl)cc1` [Example 58, N-(4-Aminophenyl)-(2-chloro-5-nitrophenyl)carboxamide mono-hydrochloride] is 2.8 nM.
Turning to `O=C(Nc1ccc(-n2ccnc2)cc1)c1cccc(NC(=O)c2cc([N+](=O)[O-])ccc2Cl)c1` [Example 231, N-[[3-[4-(Imidazol-1-yl)phenyl]aminocarbonyl]phenyl]-(2-chloro-5-nitrophenyl)carboxamide], the half-inhibitory concentration (IC50) is 60 nM.
For the compound `Cc1cnc(NC(=O)c2cc([N+](=O)[O-])ccc2Cl)s1` [Example 4, N-(5-Methylthiazol-2-yl)-(2-chloro-5-nitrophenyl)carboxamide], the IC50 was determined as 120 nM.
For the compound `O=C(Nc1ccc(-c2ccc(NC(=S)Nc3ccncc3)cc2)cc1)c1cc([N+](=O)[O-])ccc1Cl` [Example 258, N-[4-[4-[(Pyridin-4-yl)aminothiocarbonylamino]phenyl]phenyl]-(2-chloro-5-nitrophenyl)carboxamide], the IC50 came to 25 nM.
The same measure for `Cc1ccnc(NC(=O)c2cc([N+](=O)[O-])ccc2Cl)n1` [Example 65, N-(4-Methylpyrimidin-2-yl)-(2-chloro-5-nitrophenyl)carboxamide]: 37 nM; for `CCCCCCCCN(CCC)c1ccc(-c2ccc(NC(=O)c3cc([N+](=O)[O-])ccc3Cl)cc2)cc1` [Example 224, N-[4-[4-(N-Octyl-N-propylamino)phenyl]phenyl]-(2-chloro-5-nitrophenyl)carboxamide]: 79 nM; for `CCCCCCN(CC)c1ccc(-c2ccc(NC(=O)c3cc([N+](=O)[O-])ccc3Cl)cc2)cc1` [Example 197, N-[4-[4-(N-Ethyl-N-hexylamino)phenyl]phenyl]-(2-chloro-5-nitrophenyl)carboxamide]: 280 nM.
Turning to `CC(C)(C)c1cc(NC(=O)c2cc([N+](=O)[O-])ccc2Cl)cc(C(C)(C)C)c1O` [Example 29, N-(3,5-Di-t-butyl-4-hydroxyphenyl)-(2-chloro-5-nitrophenyl)carboxamide], the 50% inhibitory concentration (IC50) is 230 nM.
In the case of `O=C(Nc1cccc(-c2ccccc2)c1)c1cc([N+](=O)[O-])ccc1Cl` [Example 5, N-(3-Phenylphenyl)-(2-chloro-5-nitrophenyl)carboxamide], the IC50 worked out at 82 nM.
As to `Cn1c(NC(=O)c2cc([N+](=O)[O-])ccc2Cl)nc2ccccc21` [Example 82, N-(1-Methylbenzimidazol-2-yl)-(2-chloro-5-nitrophenyl)carboxamide], the IC50 was determined as 400 nM.
Turning to `O=C(Nc1ccc(S(=O)(=O)Nc2nccs2)cc1)c1cc([N+](=O)[O-])ccc1Cl` [Example 96, N-[4-(Thiazol-2-yl)aminosulfonyl]phenyl-(2-chloro-5-nitrophenyl)carboxamide], the IC50 came to 650 nM.
`Cc1ccc(NC(=O)c2cc([N+](=O)[O-])ccc2Cl)nc1` [Example 52, N-(5-Methylpyridin-2-yl)-(2-chloro-5-nitrophenyl)carboxamide]: the IC50 is 210 nM.
The same measure for `O=C(Nc1ccc(NC(=S)Nc2cccnc2)cc1)c1cc([N+](=O)[O-])ccc1Cl` [Example 257, N-[4-[(Pyridin-3-yl)aminothiocarbonylamino]phenyl]-(2-chloro-5-nitrophenyl)carboxamide]: 130 nM.
Regarding `Cc1cc(Cl)nc(NC(=O)c2cc([N+](=O)[O-])ccc2Cl)n1` [Example 78, N-(4-Chloro-6-methylpyrimidin-2-yl)-(2-chloro-5-nitrophenyl)carboxamide], the half-maximal inhibitory concentration (IC50) amounted to 84 nM.
For the compound `CCN(c1ccc(NS(=O)(=O)c2ccc(NC(=O)c3cc([N+](=O)[O-])ccc3Cl)cc2)cc1)C(C)C` [Example 232, N-[[4-[4-(N-Ethyl-N-isopropylamino)phenyl]aminosulfonyl]phenyl]-(2-chloro-5-nitrophenyl)carboxamide], the IC50 was 56 nM.
The same measure for `O=C(Nc1ccc(N2CCN(C(=O)c3ccncc3)CC2)cc1)c1cc([N+](=O)[O-])ccc1Cl` [Example 228, N-[4-[4-(Pyridin-4-ylcarbonyl)piperazin-1-yl]phenyl]-(2-chloro-5-nitrophenyl)carboxamide]: 130 nM; for `O=C(Nc1ccc(NC(=O)c2cc([N+](=O)[O-])ccc2Cl)cc1)c1ccccc1` [Example 119, N-(4-Benzoylaminophenyl)-(2-chloro-5-nitrophenyl)carboxamide]: 36 nM.
The figure for `O=C(Nc1ccc(S(=O)(=O)Nc2ccc(Cl)nn2)cc1)c1cc([N+](=O)[O-])ccc1Cl` [Example 102, N-[4-[(6-Chloropyridazin-3-yl)aminosulfonyl]phenyl]-(2-chloro-5-nitrophenyl)carboxamide] is 490 nM; for `O=C(Nc1ccc(NC(=O)c2cc([N+](=O)[O-])ccc2Cl)cc1)c1ccncc1` [Example 125, N-[4-(Pyridin-4-ylcarbonylamino)phenyl]-(2-chloro-5-nitrophenyl)carboxamide] it is 240 nM.
The figure for `O=C(Nc1nc(-c2cccnc2)cs1)c1cc([N+](=O)[O-])ccc1Cl` [Example 37, N-[4-(3-Pyridyl)thiazol-2-yl)-(2-chloro-5-nitrophenyl)carboxamide] is 15 nM; for “N-[4-(Pyrrolidinylsulfonyl)phenyl]-(2-chloro-5-nitrophenyl)carboxamide [Example 152]” it is 42 nM; for `O=C(Nc1ccc(-c2ccccc2)cc1)c1cc([N+](=O)[O-])ccc1Cl` [Example 2, N-(4-Phenylphenyl)-(2-chloro-5-nitrophenyl)carboxamide] it is 1.9 nM.
For `O=C(Nc1ccc(-c2ccccn2)cc1)c1cc([N+](=O)[O-])ccc1Cl` [Example 8, N-[4-(2-Pyridyl)phenyl]-(2-chloro-5-nitrophenyl)carboxamide], the IC50 turned out to be 5.9 nM.
The figure for `CCCCCc1ccc(NC(=O)c2cc([N+](=O)[O-])ccc2Cl)cc1` [Example 16, N-(4-Pentylphenyl)-(2-chloro-5-nitrophenyl)carboxamide] is 7.5 nM; for `N=C(N)NS(=O)(=O)c1ccc(NC(=O)c2cc([N+](=O)[O-])ccc2Cl)cc1` [Example 106, N-[4-(Amidinoaminosulfonyl)phenyl]-(2-chloro-5-nitrophenyl)carboxamide] it is 360 nM.
Consider `CC(=O)Nc1ccc(NC(=O)c2cc([N+](=O)[O-])ccc2Cl)cc1` [Example 117, N-(4-Acetylaminophenyl)-(2-chloro-5-nitrophenyl)carboxamide], for which the IC50 was 120 nM.
On to `NCCc1ccc(NC(=O)c2cc([N+](=O)[O-])ccc2Cl)cc1` [Example 267, N-[4-(2-Aminoethyl)phenyl]-(2-chloro-5-nitrophenyl)carboxamide], for which the IC50 stood at 60 nM.
The same measure for `CCCCCCN(C)c1ccc(-c2ccc(NC(=O)c3cc([N+](=O)[O-])ccc3Cl)cc2)cc1` [Example 196, N-[4-[4-(N-Hexyl-N-methylamino)phenyl]phenyl]-(2-chloro-5-nitrophenyl)carboxamide]: 990 nM.
The figure for `O=C(Nc1c(Cl)ncnc1Cl)c1cc([N+](=O)[O-])ccc1Cl` [Example 81, N-(4,6-Dichloropyrimidin-5-yl)-(2-chloro-5-nitrophenyl)carboxamide] is 23 nM; for `CCCCCCCCNc1ccc(-c2ccc(NC(=O)c3cc([N+](=O)[O-])ccc3Cl)cc2)cc1` [Example 219, N-[4-[4-(N-Octylamino)phenyl]phenyl]-(2-chloro-5-nitrophenyl)carboxamide] it is 8.3 nM; for `O=C(Nc1ccc(CCNC(=S)Nc2cccnc2)cc1)c1cc([N+](=O)[O-])ccc1Cl` [Example 273, N-[4-[2-(Pyridin-3-yl)aminothiocarbonylaminoethyl]phenyl]-(2-chloro-5-nitrophenyl)carboxamide] it is 13 nM.
The same measure for `O=C(Nc1cccc(NS(=O)(=O)c2ccccc2)c1)c1cc([N+](=O)[O-])ccc1Cl` [Example 30, N-(3-Benzensulfonylaminophenyl)-(2-chloro-5-nitrophenyl)carboxamide]: 12 nM; for `O=C(Nc1ccc(S(=O)(=O)Nc2cccnc2)cc1)c1cc([N+](=O)[O-])ccc1Cl` [Example 178]: 330 nM.
Regarding `COc1cnc(NS(=O)(=O)c2ccc(NC(=O)c3cc([N+](=O)[O-])ccc3Cl)cc2)nc1` [Example 105, N-[4-[(5-Methoxypyrimidin-2-yl)aminosulfonyl]phenyl]-(2-chloro-5-nitrophenyl)carboxamide], the IC50 was 710 nM.
Take `N#Cc1ccc(NC(=O)c2cc([N+](=O)[O-])ccc2Cl)cc1` [Example 20, N-(4-Cyanophenyl)-(2-chloro-5-nitrophenyl)carboxamide]: the IC50 came out at 15 nM.
Consider `CCCCCCCCN(CCCCCC)c1ccc(-c2ccc(NC(=O)c3cc([N+](=O)[O-])ccc3Cl)cc2)cc1` [Example 220, N-[4-[4-(N-Hexyl-N-octylamino)phenyl]phenyl]-(2-chloro-5-nitrophenyl)carboxamide mono-hydrochloride], for which the half-maximal inhibitory concentration (IC50) amounted to 18 nM.

The values above are taken from US20030134859A1 (SANKYO COMPANY, LIMITED, priority 2000, published 2003).
